Converted amounts (≈) assume the structure as drawn. Values belong to the compound of their own block, whether it stands above or below them.
What was measured:
Assay in all cases: ≥ marks a high value that may be exact or a test limit, other limits are often not marked, values filed in µg/mL are converted to µM
[1] = tested on: Pseudomonas aeruginosa NBRC 12582
[2] = tested on: Micrococcus luteus NBRC 12708
[3] = tested on: Escherichia coli NBRC 14237
[4] = tested on: Staphylococcus aureus NBRC 12732
[5] = tested on: Staphylococcus aureus ATCC 25923
[6] = tested on: Enterococcus faecalis 981
Candida glabrata 090902 = tested on: Candida glabrata 090902
[7] = tested on: Nocardia asteroides 201118
[8] = tested on: Psychrobacter faecalis X29
[9] = tested on: Staphylococcus aureus ATCC 29313
[10] = tested on: Klebsiella pneumoniae ATCC 700603
[11] = tested on: Escherichia coli ATCC 25922
[12] = tested on: Pseudomonas aeruginosa Pa1-SA2
[13] = tested on: Pseudomonas aeruginosa Pa4-SA2
[14] = tested on: Pseudomonas aeruginosa ATCC 27853
[15] = tested on: Pseudomonas aeruginosa PAO1
[16] = tested on: Pseudomonas aeruginosa PA006
[17] = tested on: Salmonella enterica subsp. enterica serovar Typhimurium ATCC 14028
[18] = tested on: Xanthomonas arboricola pv. pruni CFBP 5563
Bacillus cereus = tested on: Bacillus cereus
[19] = tested on: Candida albicans CCM 8186
[20] = tested on: Xanthomonas campestris pv. Vesicatoria 2133-2
[21] = tested on: Staphylococcus epidermidis PCM 2118
[22] = tested on: Candida parapsilosis CCM 8260
[23] = tested on: Pseudomonas syringae pv. syringae EPS 94
[24] = tested on: Candida glabrata CCM 8270
[25] = tested on: Erwinia amylovora PMV 6076
[26] = tested on: Xanthomonas fragariae Xf349-9A
[27] = tested on: Staphylococcus aureus PCM 2054
[28] = tested on: Fusobacterium nucleatum ATCC 10953
[29] = tested on: Porphyromonas gingivalis ATCC 33277
Bacillus subtilis = tested on: Bacillus subtilis
Candida krusei CCM 8271 = tested on: Candida krusei CCM 8271
[30] = tested on: Escherichia coli PCM 2057
[31] = tested on: Candida tropicalis CCM 8264
[32] = tested on: Pseudomonas aeruginosa PCM 499
[33] = tested on: Pseudomonas syringae pv. actinidiae Psa3700.1.1
[34] = tested on: Klebsiella pneumoniae subsp. pneumoniae CGMCC 1.176
Bacillus cereus AS1.126 = tested on: Bacillus cereus AS1.126
[35] = tested on: Pseudomonas aeruginosa CGMCC 1.860
[36] = tested on: Enterococcus faecalis CGMCC 1.595
[37] = tested on: Enterobacter cloacae CGMCC 1.58
Escherichia coli AS1.349 = tested on: Escherichia coli AS1.349
[38] = tested on: Enterococcus faecium CGMCC 1.2334
[39] = tested on: Staphylococcus aureus AS1.72
[40] = tested on: Klebsiella aerogenes CGMCC 1.876
[41] = tested on: Acinetobacter baumannii CICC 22934
[42] = tested on: Lactococcus lactis AS1.1690
[43] = tested on: Proteus mirabilis CICC 22931

- MIC [18]: 1.13 µM (≈ 1.48 µg/mL)
- MIC (Bacillus cereus): ≥ 38.2 µM
- MIC [19]: 5.96 µM (≈ 7.79 µg/mL)
- MIC [20]: 8.8 µM (≈ 11.5 µg/mL)
- MIC [21]: 5.96 µM (≈ 7.79 µg/mL)
- MIC [22]: 1.53 µM (≈ 2 µg/mL)
- MIC [23]: 8.8 µM (≈ 11.5 µg/mL)
- MIC [24]: 11.9 µM (≈ 15.6 µg/mL)
- MIC [25]: 8.8 µM (≈ 11.5 µg/mL)
- MIC [26]: 4.38 µM (≈ 5.73 µg/mL)
- MIC [27]: 19.1 µM (≈ 25 µg/mL)
- MIC [28]: 11.9 µM (≈ 15.6 µg/mL)
- MIC [29]: ≥ 95.5 µM
- MIC (Bacillus subtilis): 5.96 µM (≈ 7.79 µg/mL)
- MIC (Candida krusei CCM 8271): 5.96 µM (≈ 7.79 µg/mL)
- MIC [30]: 5.96 µM (≈ 7.79 µg/mL)
- MIC [31]: 1.53 µM (≈ 2 µg/mL)
- MIC [32]: 19.1 µM (≈ 25 µg/mL)
- MIC [33]: 2.23 µM (≈ 2.91 µg/mL)
SMILES: CC(C)[C@H](NC(=O)[C@H](Cc1c[nH]c2ccccc12)NC(=O)[C@H](Cc1ccccc1)NC(=O)[C@@H](NC(=O)[C@@H](NC(=O)[C@H](CCCCN)NC(=O)[C@@H](N)CCCCN)C(C)C)C(C)C)C(=O)N[C@@H](CCCCN)C(=O)N[C@@H](Cc1ccccc1)C(=O)N[C@@H](CCCCN)C(N)=O [KKVVFWVKFK]

- MIC [34]: ≥ 100 µM
- MIC (Bacillus cereus AS1.126): 1.56 µM (≈ 3.63 µg/mL)
- MIC [35]: ≥ 100 µM
- MIC [36]: 3.13 µM (≈ 7.27 µg/mL)
- MIC [37]: ≥ 100 µM
- MIC (Escherichia coli AS1.349): ≥ 100 µM
- MIC [38]: 3.13 µM (≈ 7.27 µg/mL)
- MIC [39]: 2.34 µM (≈ 5.44 µg/mL)
- MIC [40]: ≥ 100 µM
- MIC [41]: ≥ 100 µM
- MIC [42]: 3.13 µM (≈ 7.27 µg/mL)
- MIC [43]: ≥ 100 µM
SMILES: CC(C)C[C@H](NC(=O)[C@H](CCCCN)NC(=O)[C@H](CCCN=C(N)N)NC(=O)[C@H](Cc1cnc[nH]1)NC(=O)[C@H](C)NC(=O)[C@H](CCCN=C(N)N)NC(=O)[C@H](Cc1cnc[nH]1)NC(=O)[C@H](CC(C)C)NC(=O)[C@H](Cc1ccccc1)NC(=O)[C@H](CCCN=C(N)N)NC(=O)[C@H](CCCN=C(N)N)NC(=O)[C@H](CC(C)C)NC(=O)[C@H](Cc1cnc[nH]1)NC(=O)[C@H](CCCN=C(N)N)NC(=O)[C@H](CC(C)C)NC(=O)[C@@H](NC(=O)[C@H](CCCCN)NC(=O)[C@@H](N)CO)C(C)C)C(=O)O [SKVLRHLRRFLHRAHRKL]

The next lines start with the compound.

SMILES: CC[C@H](C)[C@H](NC(=O)[C@@H](N)Cc1ccccc1)C(=O)NCC(=O)N[C@@H](C)C(=O)N[C@@H](CC(C)C)C(=O)N[C@@H](CC(C)C)C(=O)NCC(=O)N1CCC[C@H]1C(=O)N[C@@H](CC(C)C)C(=O)N[C@@H](CC(C)C)C(=O)N[C@@H](CC(N)=O)C(=O)N[C@@H](CC(C)C)C(=O)N[C@@H](CC(C)C)C(=O)N[C@@H](CCCCN)C(N)=O [FIGALLGPLLNLLK]
- MIC [1]: ≥ 50 µM
- MIC [2]: 12.5 µM (≈ 18.5 µg/mL)
- MIC [3]: ≥ 50 µM
- MIC [4]: 12.5 µM (≈ 18.5 µg/mL)

SMILES: CC[C@H](C)[C@H](NC(=O)[C@H](CC(C)C)NC(=O)CNC(=O)[C@@H]1CCCN1C(=O)[C@H](CC(C)C)NC(=O)[C@@H](N)Cc1ccccc1)C(=O)N[C@@H](CCCCN)C(=O)N[C@@H](C)C(=O)N[C@@H](C)C(=O)N[C@H](C(=O)NCC(=O)N[C@H](C(=O)NCC(=O)N[C@@H](CO)C(=O)N[C@H](C(=O)N[C@H](C(=O)N[C@@H](CC(C)C)C(=O)N[C@H]1CSSC[C@@H](C(=O)O)NC(=O)[C@H](CCCCN)NC(=O)[C@H](CCCCN)NC(=O)[C@H]([C@@H](C)O)NC(=O)[C@H]([C@@H](C)CC)NC(=O)[C@H](CCCCN)NC1=O)[C@@H](C)CC)[C@@H](C)O)C(C)C)C(C)C [FLPGLIKAAVGVGSTILCKITKKC]
- MIC [5]: 12.5 µM (≈ 30.7 µg/mL)
- MIC [6]: 6.3 µM (≈ 15.5 µg/mL)
- MIC (Candida glabrata 090902): 12.5 µM (≈ 30.7 µg/mL)
- MIC [7]: 6.3 µM (≈ 15.5 µg/mL)
- MIC [8]: ≥ 50 µM

SMILES: CC[C@H](C)[C@H](NC(=O)[C@H](C)NC(=O)[C@H](Cc1cnc[nH]1)NC(=O)[C@H](C)NC(=O)[C@@H](NC(=O)[C@H](CC(C)C)NC(=O)[C@H](CC(=O)O)NC(=O)[C@H](CCCCN)NC(=O)CNC(=O)[C@H](C)NC(=O)CNC(=O)[C@H](CCCCN)NC(=O)[C@@H](NC(=O)[C@@H](NC(=O)[C@H](CC(=O)O)NC(=O)[C@@H](NC(=O)[C@@H](NC(=O)CN)C(C)C)[C@@H](C)CC)[C@@H](C)CC)[C@@H](C)CC)[C@@H](C)CC)C(=O)NCC(=O)N[C@@H](CCCCN)C(=O)N[C@@H](CC(C)C)C(=O)N[C@@H](C)C(=O)N[C@@H](CCC(=O)O)C(=O)N[C@@H](CCCCN)C(=O)N[C@H](C(N)=O)C(C)C [GVIDIIKGAGKDLIAHAIGKLAEKV]
- MIC [9]: ≥ 316 µM
- MIC [10]: > 316 µM
- MIC [11]: 316 µM (≈ 800 µg/mL)
- MIC [12]: ≥ 50.6 µM
- MIC [13]: 25.3 µM (≈ 64 µg/mL)
- MIC [14]: > 202 µM
- MIC [15]: 202 µM (≈ 512 µg/mL)
- MIC [16]: 6.32 µM (≈ 16 µg/mL)
- MIC [17]: > 316 µM

— DBAASP
